Bridge positions count the residues as written; N and C are the ends. Square brackets hold non-standard residues; d marks the D form. Peptide text beside a SMILES is read from it. * marks the point of attachment. X5 = O=P(O)(O)OC[C@H]1O[C@H](*)[C@@H](O)[C@@H](O)[C@@H]1O; X3 = CC(=O)N[C@@H]1[C@@H](O)[C@H](O)[C@@H](CO)O[C@@H]1*; X7 = CC(=O)N[C@H]1[C@@H](O)[C@H](O)[C@@H](CO)O[C@@H]1*; αMan = OC[C@H]1O[C@H](*)[C@@H](O)[C@@H](O)[C@@H]1O; hSer = N[C@@H](CCO)C(=O)O
Biological target: T1, thermolysin (Bacillus thermoproteolyticus, UniProt P00800)
T1 sequence (P00800 233-548): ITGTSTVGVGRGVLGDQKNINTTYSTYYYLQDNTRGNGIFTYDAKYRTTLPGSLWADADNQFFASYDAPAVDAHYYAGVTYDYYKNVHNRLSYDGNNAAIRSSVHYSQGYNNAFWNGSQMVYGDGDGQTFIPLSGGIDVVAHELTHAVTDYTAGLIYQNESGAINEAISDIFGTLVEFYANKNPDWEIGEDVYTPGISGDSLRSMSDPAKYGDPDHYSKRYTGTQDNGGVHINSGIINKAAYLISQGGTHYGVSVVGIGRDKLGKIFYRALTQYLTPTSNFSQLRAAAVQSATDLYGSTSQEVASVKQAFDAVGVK
Assay: Proteolytic stability: half-life to thermolysin degradation
Type: in vitro ADME
Conditions: for half-life: thermolysin (isolated protease), thermolysin degradation, mean of three trials ± SD, procedures as described previously (ESI ref 18); for Change in Half-Life to Thermolysin Degradation: glyco-variant minus its corresponding unglycosylated CBM (e.g. 2-1), *** not used in the correlation plot
Method: All error bars reported are standard deviations of data achieved from three separate trials.
cellulose that were determined in accordance with our procedures as described previously 18.
The results are presented as mean of three trials ± SD. *Denotes an averaged value of four trials

SMILES	half-life [min]	Change in Half-Life to Thermolysin Degradation [min]
CC[C@H](C)[C@@H]1NC(=O)CNC(=O)CNC(=O)[C@@H](NC(=O)[C@H](CCC(N)=O)NC(=O)CNC(=O)[C@H](Cc2ccc(O)cc2)NC(=O)[C@H](Cc2c[nH]cn2)NC(=O)[C@@H](CO[C@H]2O[C@H](CO)[C@@H](O)[C@H](O)[C@@H]2O)NC(=O)[C@H](CCC(N)=O)NC(=O)[C@@H](N)[C@@H](C)O)CSSC[C@@H]2NC(=O)[C@H]([C@@H](C)O)NC(=O)[C@H]([C@@H](C)O)NC(=O)CNC(=O)[C@H](CO)NC(=O)[C@H](C)NC(=O)[C@H](CSSC[C@@H](C(=O)N[C@@H](CC(C)C)C(=O)O)NC(=O)[C@H](CCC(N)=O)NC(=O)[C@H](CO)NC(=O)[C@H](Cc3ccc(O)cc3)NC(=O)[C@H](Cc3ccc(O)cc3)NC(=O)[C@@H]3CCCN3C(=O)[C@H](CC(N)=O)NC(=O)[C@H](CC(C)C)NC(=O)[C@H](C(C)C)NC(=O)[C@H](CCC(N)=O)NC2=O)NC(=O)[C@H](C(C)C)NC(=O)[C@H]([C@@H](C)O)NC(=O)[C@@H]2CCCN2C(=O)CNC(=O)[C@H](CO)NC(=O)[C@H](Cc2ccc(O)cc2)NC(=O)CNC1=O [CBM variant 17] (H-TQ[dS](αMan)HYGQCGGIGYSGPTVCASGTTCQVLNPYYSQCL-OH; disulfide 8-25, 19-35)	10.2 ± 1.2	
CC[C@H](C)[C@@H]1NC(=O)CNC(=O)CNC(=O)[C@@H](NC(=O)[C@H](CCC(N)=O)NC(=O)CNC(=O)[C@H](Cc2ccc(O)cc2)NC(=O)[C@H](Cc2c[nH]cn2)NC(=O)[C@H](CCO)NC(=O)[C@H](CCC(N)=O)NC(=O)[C@@H](N)[C@@H](C)O)CSSC[C@@H]2NC(=O)[C@H]([C@@H](C)O)NC(=O)[C@H]([C@@H](C)O)NC(=O)CNC(=O)[C@H](CO)NC(=O)[C@H](C)NC(=O)[C@H](CSSC[C@@H](C(=O)N[C@@H](CC(C)C)C(=O)O)NC(=O)[C@H](CCC(N)=O)NC(=O)[C@H](CO)NC(=O)[C@H](Cc3ccc(O)cc3)NC(=O)[C@H](Cc3ccc(O)cc3)NC(=O)[C@@H]3CCCN3C(=O)[C@H](CC(N)=O)NC(=O)[C@H](CC(C)C)NC(=O)[C@H](C(C)C)NC(=O)[C@H](CCC(N)=O)NC2=O)NC(=O)[C@H](C(C)C)NC(=O)[C@H]([C@@H](C)O)NC(=O)[C@@H]2CCCN2C(=O)CNC(=O)[C@H](CO)NC(=O)[C@H](Cc2ccc(O)cc2)NC(=O)CNC1=O [CBM variant 18] (H-TQ[hSer]HYGQCGGIGYSGPTVCASGTTCQVLNPYYSQCL-OH; disulfide 8-25, 19-35)	18 ± 0.6	
CC[C@H](C)[C@@H]1NC(=O)CNC(=O)CNC(=O)[C@@H](NC(=O)[C@H](CCC(N)=O)NC(=O)CNC(=O)[C@H](Cc2ccc(O)cc2)NC(=O)[C@H](Cc2c[nH]cn2)NC(=O)[C@H](CCO[C@H]2O[C@H](CO)[C@@H](O)[C@H](O)[C@@H]2O)NC(=O)[C@H](CCC(N)=O)NC(=O)[C@@H](N)[C@@H](C)O)CSSC[C@@H]2NC(=O)[C@H]([C@@H](C)O)NC(=O)[C@H]([C@@H](C)O)NC(=O)CNC(=O)[C@H](CO)NC(=O)[C@H](C)NC(=O)[C@H](CSSC[C@@H](C(=O)N[C@@H](CC(C)C)C(=O)O)NC(=O)[C@H](CCC(N)=O)NC(=O)[C@H](CO)NC(=O)[C@H](Cc3ccc(O)cc3)NC(=O)[C@H](Cc3ccc(O)cc3)NC(=O)[C@@H]3CCCN3C(=O)[C@H](CC(N)=O)NC(=O)[C@H](CC(C)C)NC(=O)[C@H](C(C)C)NC(=O)[C@H](CCC(N)=O)NC2=O)NC(=O)[C@H](C(C)C)NC(=O)[C@H]([C@@H](C)O)NC(=O)[C@@H]2CCCN2C(=O)CNC(=O)[C@H](CO)NC(=O)[C@H](Cc2ccc(O)cc2)NC(=O)CNC1=O [CBM variant 19] (H-TQ[hSer](αMan)HYGQCGGIGYSGPTVCASGTTCQVLNPYYSQCL-OH; disulfide 8-25, 19-35)	20.4 ± 4.2	2.4
CC[C@H](C)[C@@H]1NC(=O)CNC(=O)CNC(=O)[C@@H](NC(=O)[C@H](CCC(N)=O)NC(=O)CNC(=O)[C@H](Cc2ccc(O)cc2)NC(=O)[C@H](Cc2c[nH]cn2)NC(=O)[C@H](CO[C@H]2O[C@H](COP(=O)(O)O)[C@@H](O)[C@H](O)[C@@H]2O)NC(=O)[C@H](CCC(N)=O)NC(=O)[C@@H](N)[C@@H](C)O)CSSC[C@@H]2NC(=O)[C@H]([C@@H](C)O)NC(=O)[C@H]([C@@H](C)O)NC(=O)CNC(=O)[C@H](CO)NC(=O)[C@H](C)NC(=O)[C@H](CSSC[C@@H](C(=O)N[C@@H](CC(C)C)C(=O)O)NC(=O)[C@H](CCC(N)=O)NC(=O)[C@H](CO)NC(=O)[C@H](Cc3ccc(O)cc3)NC(=O)[C@H](Cc3ccc(O)cc3)NC(=O)[C@@H]3CCCN3C(=O)[C@H](CC(N)=O)NC(=O)[C@H](CC(C)C)NC(=O)[C@H](C(C)C)NC(=O)[C@H](CCC(N)=O)NC2=O)NC(=O)[C@H](C(C)C)NC(=O)[C@H]([C@@H](C)O)NC(=O)[C@@H]2CCCN2C(=O)CNC(=O)[C@H](CO)NC(=O)[C@H](Cc2ccc(O)cc2)NC(=O)CNC1=O [CBM variant 20] (H-TQS(X5)HYGQCGGIGYSGPTVCASGTTCQVLNPYYSQCL-OH; disulfide 8-25, 19-35)	34.2 ± 3.6	20.4
CC[C@H](C)[C@@H]1NC(=O)CNC(=O)CNC(=O)[C@@H](NC(=O)[C@H](CCC(N)=O)NC(=O)CNC(=O)[C@H](Cc2ccc(O)cc2)NC(=O)[C@H](Cc2c[nH]cn2)NC(=O)[C@H](CO[C@H]2O[C@H](CO)[C@@H](O)[C@H](O)[C@@H]2NC(C)=O)NC(=O)[C@H](CCC(N)=O)NC(=O)[C@@H](N)[C@@H](C)O)CSSC[C@@H]2NC(=O)[C@H]([C@@H](C)O)NC(=O)[C@H]([C@@H](C)O)NC(=O)CNC(=O)[C@H](CO)NC(=O)[C@H](C)NC(=O)[C@H](CSSC[C@@H](C(=O)N[C@@H](CC(C)C)C(=O)O)NC(=O)[C@H](CCC(N)=O)NC(=O)[C@H](CO)NC(=O)[C@H](Cc3ccc(O)cc3)NC(=O)[C@H](Cc3ccc(O)cc3)NC(=O)[C@@H]3CCCN3C(=O)[C@H](CC(N)=O)NC(=O)[C@H](CC(C)C)NC(=O)[C@H](C(C)C)NC(=O)[C@H](CCC(N)=O)NC2=O)NC(=O)[C@H](C(C)C)NC(=O)[C@H]([C@@H](C)O)NC(=O)[C@@H]2CCCN2C(=O)CNC(=O)[C@H](CO)NC(=O)[C@H](Cc2ccc(O)cc2)NC(=O)CNC1=O [CBM variant 21] (H-TQS(X7)HYGQCGGIGYSGPTVCASGTTCQVLNPYYSQCL-OH; disulfide 8-25, 19-35)	41.4 ± 5.4	27.6
CC[C@H](C)[C@@H]1NC(=O)CNC(=O)CNC(=O)[C@@H](NC(=O)[C@H](CCC(N)=O)NC(=O)CNC(=O)[C@H](Cc2ccc(O)cc2)NC(=O)[C@H](Cc2c[nH]cn2)NC(=O)[C@H](CO[C@H]2O[C@H](CO)[C@@H](O)[C@H](O)[C@H]2NC(C)=O)NC(=O)[C@H](CCC(N)=O)NC(=O)[C@@H](N)[C@@H](C)O)CSSC[C@@H]2NC(=O)[C@H]([C@@H](C)O)NC(=O)[C@H]([C@@H](C)O)NC(=O)CNC(=O)[C@H](CO)NC(=O)[C@H](C)NC(=O)[C@H](CSSC[C@@H](C(=O)N[C@@H](CC(C)C)C(=O)O)NC(=O)[C@H](CCC(N)=O)NC(=O)[C@H](CO)NC(=O)[C@H](Cc3ccc(O)cc3)NC(=O)[C@H](Cc3ccc(O)cc3)NC(=O)[C@@H]3CCCN3C(=O)[C@H](CC(N)=O)NC(=O)[C@H](CC(C)C)NC(=O)[C@H](C(C)C)NC(=O)[C@H](CCC(N)=O)NC2=O)NC(=O)[C@H](C(C)C)NC(=O)[C@H]([C@@H](C)O)NC(=O)[C@@H]2CCCN2C(=O)CNC(=O)[C@H](CO)NC(=O)[C@H](Cc2ccc(O)cc2)NC(=O)CNC1=O [CBM variant 22] (H-TQS(X3)HYGQCGGIGYSGPTVCASGTTCQVLNPYYSQCL-OH; disulfide 8-25, 19-35)	24 ± 0.6	10.2

— PMC5580309, “Molecular-scale features that govern the effects of O-glycosylation on a carbohydrate-binding module” (Chemical Science, 2015)
